Key:
Format in all cases: in vivo
[1] = test system: Abutilon theophrasti (ABUTH, velvetleaf); experiment: Pre-emergence herbicidal evaluation; details: 3 weeks after treatment
Source text: (§1) The pre-emergence herbicidal activity of the compounds of the present invention is exemplified by the following test in which the seeds of a variety of monocotyledonous and dicotyledonous plants are seperately mixed with potting soil and planted on top of approximately one inch of soil in separate post. After planting, the pots are sprayed with the selected aqueous acetone solution. containing test compound in sufficient quantity to provide the equivalent of about 0.025 to 0.4 kg per hectare of test compound per pot. The treated pots are then placed on greenhouse benches, watered and cared for in accordance with conventional greenhouse procedures. From 3 weeks after treatment, the tests are terminated and each pot is examined and rated according to the rating system set forth below. [table] [table]

[2] = test system: Alopecurus myosuroides (ALOMY, black grass); experiment: Pre-emergence herbicidal evaluation; details: 3 weeks after treatment
Source text: as §1

[3] = test system: Echinochloa grus galli (ECHCG, barnyard grass); experiment: Pre-emergence herbicidal evaluation; details: 3 weeks after treatment
Source text: as §1

[4] = test system: Galium aparine (GALAP, cleaver); experiment: Pre-emergence herbicidal evaluation; details: 3 weeks after treatment
Source text: as §1

[5] = test system: Ipomoea hederacea (IPOHE, morning glory); experiment: Pre-emergence herbicidal evaluation; details: 3 weeks after treatment
Source text: as §1

[6] = test system: Matricaria inodora (MATIN, mayweed); experiment: Pre-emergence herbicidal evaluation; details: 3 weeks after treatment
Source text: as §1

[7] = test system: Setaria viridis (SETVI, green foxtail); experiment: Pre-emergence herbicidal evaluation; details: 3 weeks after treatment
Source text: as §1

[8] = test system: Stellaria media (STEME, chickweed); experiment: Pre-emergence herbicidal evaluation; details: 3 weeks after treatment
Source text: as §1

[9] = test system: Glycine max (GLXMA, soyabeans); experiment: Pre-emergence herbicidal evaluation (crop); details: 3 weeks after treatment
Source text: as §1

[10] = test system: Triticum aestivum (TRZAW, winter wheat); experiment: Pre-emergence herbicidal evaluation (crop); details: 3 weeks after treatment
Source text: as §1

Zea mays (ZEAMX, maize) = experiment: Pre-emergence herbicidal evaluation (crop); details: 3 weeks after treatment
Source text: as §1

[11] = test system: Abutilon theophrasti (ABUTH, velvetleaf); experiment: Post-emergence herbicidal evaluation; details: 3 weeks after treatment
Method: (§2) These acetone solutions are diluted with water and the resulting formulations applied at dosage levels equivalent of about 0.025 to 0.4 kg per hectare of test compound per pot. After spraying the plants are placed on greenhouse benches and are cared for in the usual manner, commensurate with conventional greenhouse practices. From 3 weeks after treatment, the seedling plants are examined and rated according to the rating system provided above. A rating 0 indicates growth as untreated control, a rating 9 indicates death.

[12] = test system: Alopecurus myosuroides (ALOMY, black grass); experiment: Post-emergence herbicidal evaluation; details: 3 weeks after treatment
Method: as §2

[13] = test system: Dolium multiflorum (LOLMU, ryegrass); experiment: Post-emergence herbicidal evaluation; details: rate 0.100 kg/ha, 3 weeks after treatment
Method: as §2

[14] = test system: Echinochloa grus galli (ECHCG, barnyard grass); experiment: Post-emergence herbicidal evaluation; details: 3 weeks after treatment
Method: as §2

[15] = test system: Galium aparine (GALAP, cleaver); experiment: Post-emergence herbicidal evaluation; details: 3 weeks after treatment
Method: as §2

[16] = test system: Ipomoea hederacea (IPOHE, morning glory); experiment: Post-emergence herbicidal evaluation; details: 3 weeks after treatment
Method: as §2

[17] = test system: Matricaria inodora (MATIN, mayweed); experiment: Post-emergence herbicidal evaluation; details: 3 weeks after treatment
Method: as §2

[18] = test system: Setaria viridis (SETVI, green foxtail); experiment: Post-emergence herbicidal evaluation; details: 3 weeks after treatment
Method: as §2

eight weed species = experiment: Pre-emergence herbicidal evaluation, overall weed control; details: crop selective dose of 0.1 kg/ha
Source text: as §1, with “below.” for “below. [table] [table]”
Thus, there is evidence for the good potential of the compounds of the invention for excellent cross spectrum control of both grasses and broadleaf weeds in key crops.

Cc1cc(OCCSC(F)(F)F)nc(Oc2cc(C(F)(F)F)nn2C)c1 [Example 1, 2-(1-methyl-3-trifluoromethylpyrazol-5-yloxy)-6-(2-trifluoromethylthioethoxy)-4-methylpyridine]
4 (4 - Injury): GLXMA rating ([9]; rate 0.400 kg/ha) | ZEAMX rating (Zea mays (ZEAMX, maize); rate 0.100 kg/ha) | ALOMY rating ([12]; rate 0.025 kg/ha)
9 (9 - Complete kill): ABUTH rating ([1]; rate 0.100 kg/ha) | ABUTH rating ([1]; rate 0.400 kg/ha) | ALOMY rating ([2]; rate 0.100 kg/ha) | ALOMY rating ([2]; rate 0.400 kg/ha) | ECHCG rating ([3]; rate 0.100 kg/ha) | ECHCG rating ([3]; rate 0.400 kg/ha) | IPOHE rating ([5]; rate 0.100 kg/ha) | IPOHE rating ([5]; rate 0.400 kg/ha) | MATIN rating ([6]; rate 0.025 kg/ha) | MATIN rating ([6]; rate 0.100 kg/ha) | MATIN rating ([6]; rate 0.400 kg/ha) | SETVI rating ([7]; rate 0.025 kg/ha) | SETVI rating ([7]; rate 0.100 kg/ha) | SETVI rating ([7]; rate 0.400 kg/ha) | STEME rating ([8]; rate 0.025 kg/ha) | STEME rating ([8]; rate 0.100 kg/ha) | STEME rating ([8]; rate 0.400 kg/ha) | ECHCG rating ([14]; rate 0.100 kg/ha) | ECHCG rating ([14]; rate 0.400 kg/ha) | IPOHE rating ([16]; rate 0.400 kg/ha)
2 (2 - Slight effect): GLXMA rating ([9]; rate 0.025 kg/ha) | TRZAW rating ([10]; rate 0.100 kg/ha) | ZEAMX rating (Zea mays (ZEAMX, maize); rate 0.025 kg/ha) | GALAP rating ([15]; rate 0.025 kg/ha)
1 (1 - Trace effect): TRZAW rating ([10]; rate 0.025 kg/ha)
7 (7 - Good herbicidal effect): ALOMY rating ([2]; rate 0.025 kg/ha) | ECHCG rating ([3]; rate 0.025 kg/ha) | ALOMY rating ([12]; rate 0.100 kg/ha) | MATIN rating ([17]; rate 0.100 kg/ha)
8 (8 - Approaching complete kill): ABUTH rating ([1]; rate 0.025 kg/ha) | GALAP rating ([4]; rate 0.100 kg/ha) | GALAP rating ([4]; rate 0.400 kg/ha) | ALOMY rating ([12]; rate 0.400 kg/ha) | LOLMU rating [13] | GALAP rating ([15]; rate 0.400 kg/ha) | IPOHE rating ([16]; rate 0.025 kg/ha) | IPOHE rating ([16]; rate 0.100 kg/ha) | MATIN rating ([17]; rate 0.400 kg/ha) | SETVI rating ([18]; rate 0.100 kg/ha) | SETVI rating ([18]; rate 0.400 kg/ha)
6 (6 - Herbicidal effect): GALAP rating ([4]; rate 0.025 kg/ha) | IPOHE rating ([5]; rate 0.025 kg/ha) | ABUTH rating ([11]; rate 0.100 kg/ha) | ABUTH rating ([11]; rate 0.400 kg/ha) | ECHCG rating ([14]; rate 0.025 kg/ha)
3 (3 - Moderate effect): GLXMA rating ([9]; rate 0.100 kg/ha) | TRZAW rating ([10]; rate 0.400 kg/ha)
complete control: weed control (in words) (eight weed species)
5 (5 - Definite injury): ZEAMX rating (Zea mays (ZEAMX, maize); rate 0.400 kg/ha) | ABUTH rating ([11]; rate 0.025 kg/ha) | GALAP rating ([15]; rate 0.100 kg/ha) | MATIN rating ([17]; rate 0.025 kg/ha) | SETVI rating ([18]; rate 0.025 kg/ha)

From patent US6534447B1, “Herbicidal pyridine compounds” (BASF Aktiengesellschaft, priority 1999, dated 2003)
